Laboratory results taken from US20220127297A1, “Novel Antibacterial 3"-Derivatives Of 4,6-Disubstituted 2,5-Dideoxystreptamine Aminoglycoside Antibiotics” (AGILeBiotics B.V., priority 2018, published 2022).
In brackets after ≈: the same amount, converted by molar mass.

Test system: clinical isolates of multidrug-resistant Klebsiella pneumoniae (and ATCC43816)
Assay: MIC determination at Fidelta, clinical isolates
Assay type: cell-based
Conditions: Klebsiella pneumoniae
Excerpt: 3.4.2 MIC Determination at Fidelta (Croatia)
Tested reference compounds. Amikacin sulfate (Cat. No. 01693, Chem-Impex), Gentamicin sulfate (Cat. No. G4918, Sigma Aldrich), Ceftazidime Pentahydrate (Cat. No. 1098130, USP), Meropenem (Cat. No. 1392454, USP), Tobramycin (Cat. No. 1667508, USP).
Microbial strains. Klebsiella pneumoniae KP-1919 (abdomen), Klebsiella pneumoniae KP-1935 (urine), Klebsiella pneumoniae KP-1936 (abscess), Klebsiella pneumoniae KP-1937 (blood), Klebsiella pneumoniae KP-1942 (urine), Klebsiella pneumoniae KP-1944 (blood), Klebsiella pneumoniae KP-2027 (tracheal aspirate), Klebsiella pneumoniae KP-2029 (urine), Klebsiella pneumoniae KP-2030 (trachea), Klebsiella pneumoniae KP-2031 (skin), Klebsiella pneumoniae KP-2032 (urine), Klebsiella pneumoniae KP-2033 (urine), Klebsiella pneumoniae KP-2034 (urine), Klebsiella pneumoniae KP-2035 (urine), Klebsiella pneumoniae KP-2036 (urine), Klebsiella pneumoniae KP-2037 (urine), Klebsiella pneumoniae ATCC 43816, Pseudomonas aeruginosa PA-1948 (wound), Pseudomonas aeruginosa PA-1949 (urine), Pseudomonas aeruginosa PA-1950 (sputum), Pseudomonas aeruginosa PA-1952 (wound), Pseudomonas aeruginosa PA-1953 (urine), Pseudomonas aeruginosa PA-1954 (sputum), Pseudomonas aeruginosa PA-1967 (blood), Pseudomonas aeruginosa ATCC27853, Acinetobacter baumannii AB-1931 (urine), Acinetobacter baumannii AB-1932 (urine), Acinetobacter baumannii AB-2017 (bronchial aspirate), Acinetobacter baumannii AB-2018 (skin), Acinetobacter baumannii AB-2019 (bronchial aspirate), Acinetobacter baumannii AB-1964 (blood), Acinetobacter baumannii AB-2025 (skin), Acinetobacter baumannii AB-2026 (skin), Acinetobacter baumannii ATCC17978, methicillin-resistant Staphylococcus aureus MRSA-1995 (liquor), methicillin-resistant Staphylococcus aureus MRSA-1998 (wound), methicillin-resistant Staphylococcus aureus MRSA-1999 (skin), methicillin-resistant Staphylococcus aureus MRSA-2003 (wound), vancomycin-resistant Enterococcus faecium VRE-2005 (urine), vancomycin-resistant Enterococcus faecium VRE-2006 (urine), vancomycin-resistant Enterococcus faecium VRE-2007 (urine), vancomycin-resistant Enterococcus faecium VRE-2008 (urine), vancomycin-resistant Enterococcus faecium VRE-2009 (urine), vancomycin-resistant Enterococcus faecium VRE-2010 (urine), vancomycin-resistant Enterococcus faecium VRE-2011 (rectum), vancomycin-resistant Enterococcus faecium VRE-2012 (rectum), vancomycin-resistant Enterococcus faecium VRE-2013 (rectum).
Culture media and equipment. BBL™ Mueller Hinton Broth (REF 275730, Lot. 7009699, Becton Dickinson); Mueller Hinton Agar 2 (Ref. No. 97580-500G-F, Lot. No. BCBV4646, Sigma); Cellstar, 96-well plates, U-bottom (Cat. No. 650180, Lot. No. E14123EB, Greiner Bio-one); 96-well deep well plate, 1 mL (Cat. No. 278606, Nunc); Incubator (Binder); Laminar flow (Thermo Scientific); BioPhotometer (Eppendorf); DEN-1B (McFarland Densitometer, Biosan); McFarland standards (polymer microparticle suspension, Biosan).
Compound preparation. For testing, 5 mg/mL DMSO solutions of the test compounds and reference antibiotics were used. Out of these DMSO solutions, 43.5 μL was transferred to 1656.5 μL of MH media in a deep well plate. Out of these working solutions 100 μL was transferred to wells in the third column of 96-well plates. Plates are previously filled with 50 μL of MH media in all wells except for the wells in the third column. After compound and antibiotic addition, 50 μL was transferred from the third to the fourth column, then from the fourth to the fifth and so on. In this manner, the compounds and antibiotics were plated in 96-well plate in serial two-fold dilutions giving a final concentration range of 64-0.125 μg/mL.
Inoculum preparation. Designations used for clinical isolates were from Fidelta strain collection bank. Microorganisms used were all revived from skim milk storage at −70° C. by plating them on MH agar plates.

Q: `NC[C@H]1O[C@H](O[C@H]2[C@H](O)[C@@H](O[C@H]3O[C@H](CO)[C@@H](O)[C@H](N)[C@H]3O)[C@H](N)C[C@@H]2N)[C@H](N)C[C@@H]1O` [Tobramycin, tobramycin] was tested. Which MIC90 (ATCC43816) did it give?
A: Its MIC90 is 0.125 µg/mL (≈ 0.267 µM).

Q: What about the MIC90 (ATCC43816, KP-1919, Abdomen/VIM, ESBL) of the same molecule?
A: Its MIC90 is 32 µg/mL (≈ 68.4 µM).

Q: And the MIC90 (ATCC43816, KP-1935, Urine/ESBL, NDM)?
A: The MIC90 was 32 µg/mL (≈ 68.4 µM).

Q: What about the MIC90 (ATCC43816, KP-1936, Abscess/NDM) of the same molecule?
A: Its MIC90 is 16 µg/mL (≈ 34.2 µM).

Q: And the MIC90 (ATCC43816, KP-1937, Blood/VIM, ESBL)?
A: Its MIC90 is greater than 64 µg/mL.

Q: And the MIC90 (ATCC43816, KP-1942, Urine (catheter)/VIM)?
A: The MIC90 was 16 µg/mL (≈ 34.2 µM).

Q: And the MIC90 (ATCC43816, KP-1944, Blood/NDM)?
A: Its MIC90 is 32 µg/mL (≈ 68.4 µM).

Q: What about the MIC90 (ATCC43816, KP-2027, Tracheal aspirate/ESBL, OXA-48, ColR) of the same molecule?
A: The MIC90 was 16 µg/mL (≈ 34.2 µM).

Q: And the MIC90 (ATCC43816, KP-2029, Urine/ESBL, OXA-48)?
A: The MIC90 was 32 µg/mL (≈ 68.4 µM).

Q: What about the MIC90 (ATCC43816, KP-2030, Trachea/ESBL, OXA-48) of the same molecule?
A: Its MIC90 is 64 µg/mL (≈ 137 µM).

Q: What about the MIC90 (ATCC43816, KP-2031, Skin/ESBL, OXA-48) of the same molecule?
A: Its MIC90 is 32 µg/mL (≈ 68.4 µM).

Q: What about the MIC90 (ATCC43816, KP-2032, Urine/ESBL, OXA-48) of the same molecule?
A: The MIC90 was 16 µg/mL (≈ 34.2 µM).

Q: What about the MIC90 (ATCC43816, KP-2033, Urine/OXA-A8) of the same molecule?
A: The MIC90 was greater than 64 µg/mL.

Q: What about the MIC90 (ATCC43816, KP-2034, Urine/ESBL, OXA-48) of the same molecule?
A: The MIC90 was 32 µg/mL (≈ 68.4 µM).

Q: What about the MIC90 (ATCC43816, KP-2035, Urine/ESBL, OXA-48) of the same molecule?
A: Its MIC90 is 64 µg/mL (≈ 137 µM).

Q: What about the MIC90 (ATCC43816, KP-2036, Urine/ESBL) of the same molecule?
A: The MIC90 was 16 µg/mL (≈ 34.2 µM).

Q: And the MIC90 (ATCC43816, KP-2037, Urine/ESBL, OXA-48)?
A: The MIC90 was 16 µg/mL (≈ 34.2 µM).
